# Test results taken from US9546164B2 (GENENTECH, INC., priority 2013, dated 2017).
# Structures can show the parent of a compound that is named as a salt.
# Biological target: hNav1.7 (Homo sapiens (Human), UniProt Q15858)
# Assay: Tritiated sulfonamide competitive binding to membranes from cells expressing hNav1.7 and the β1 subunit;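 also: Filter-bound radioactivity counted by liquid scintillation, nonspecific binding defined with excess unlabelled ligand, IC50 fitted to percent inhibition of specific binding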
# Conditions: not given
# Sequence of hNav1.7 (Q15858 other isoform, or with tags, fused parts or gaps): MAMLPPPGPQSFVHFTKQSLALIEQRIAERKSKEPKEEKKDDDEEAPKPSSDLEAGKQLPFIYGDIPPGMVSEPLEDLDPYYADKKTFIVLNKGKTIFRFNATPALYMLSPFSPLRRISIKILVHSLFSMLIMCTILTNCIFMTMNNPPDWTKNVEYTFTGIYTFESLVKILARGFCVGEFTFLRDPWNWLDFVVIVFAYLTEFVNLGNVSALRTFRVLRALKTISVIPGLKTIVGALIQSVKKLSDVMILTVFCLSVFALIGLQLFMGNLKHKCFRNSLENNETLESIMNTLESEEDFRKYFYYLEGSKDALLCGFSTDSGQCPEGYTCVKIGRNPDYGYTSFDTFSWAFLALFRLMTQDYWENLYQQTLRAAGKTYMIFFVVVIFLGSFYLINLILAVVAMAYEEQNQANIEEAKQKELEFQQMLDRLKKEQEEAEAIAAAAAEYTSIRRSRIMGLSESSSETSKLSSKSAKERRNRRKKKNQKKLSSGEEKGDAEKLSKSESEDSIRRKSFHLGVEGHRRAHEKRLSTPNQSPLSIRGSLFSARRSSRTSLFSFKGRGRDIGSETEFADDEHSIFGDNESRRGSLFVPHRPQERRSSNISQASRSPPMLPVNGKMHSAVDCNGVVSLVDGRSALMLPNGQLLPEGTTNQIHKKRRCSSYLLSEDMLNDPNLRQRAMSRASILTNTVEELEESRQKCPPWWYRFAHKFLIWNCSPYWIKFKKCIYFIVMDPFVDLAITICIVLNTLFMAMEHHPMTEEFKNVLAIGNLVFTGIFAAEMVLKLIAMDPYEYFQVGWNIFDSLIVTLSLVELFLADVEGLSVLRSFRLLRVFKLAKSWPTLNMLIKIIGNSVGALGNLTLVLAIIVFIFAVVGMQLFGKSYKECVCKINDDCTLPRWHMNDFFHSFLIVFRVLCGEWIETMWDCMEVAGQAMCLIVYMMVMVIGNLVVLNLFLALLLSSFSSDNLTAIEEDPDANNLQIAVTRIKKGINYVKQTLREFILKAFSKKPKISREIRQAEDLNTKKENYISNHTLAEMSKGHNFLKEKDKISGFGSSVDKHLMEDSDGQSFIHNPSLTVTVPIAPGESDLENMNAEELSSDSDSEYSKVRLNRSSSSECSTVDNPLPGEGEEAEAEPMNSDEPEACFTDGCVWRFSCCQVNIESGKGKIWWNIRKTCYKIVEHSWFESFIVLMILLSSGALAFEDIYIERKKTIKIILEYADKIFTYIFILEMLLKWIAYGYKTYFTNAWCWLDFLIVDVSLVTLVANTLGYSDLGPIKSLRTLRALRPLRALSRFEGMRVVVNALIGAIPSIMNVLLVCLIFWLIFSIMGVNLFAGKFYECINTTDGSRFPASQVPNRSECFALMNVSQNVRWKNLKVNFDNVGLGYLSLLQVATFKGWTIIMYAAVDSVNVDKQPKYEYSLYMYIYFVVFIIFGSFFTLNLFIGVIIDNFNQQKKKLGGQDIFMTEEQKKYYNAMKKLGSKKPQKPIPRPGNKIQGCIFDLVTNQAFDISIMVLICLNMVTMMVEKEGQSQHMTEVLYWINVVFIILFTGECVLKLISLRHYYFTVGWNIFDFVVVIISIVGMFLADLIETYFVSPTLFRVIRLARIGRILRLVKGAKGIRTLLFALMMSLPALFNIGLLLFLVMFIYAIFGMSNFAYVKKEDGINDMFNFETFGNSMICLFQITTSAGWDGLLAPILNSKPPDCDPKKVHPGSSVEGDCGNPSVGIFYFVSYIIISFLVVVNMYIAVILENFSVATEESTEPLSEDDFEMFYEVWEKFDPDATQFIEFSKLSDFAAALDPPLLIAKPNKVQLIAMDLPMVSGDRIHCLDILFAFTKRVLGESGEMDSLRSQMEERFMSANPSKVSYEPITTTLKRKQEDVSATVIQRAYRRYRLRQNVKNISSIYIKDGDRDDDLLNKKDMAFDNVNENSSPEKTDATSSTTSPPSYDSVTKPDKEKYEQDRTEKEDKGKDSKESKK
# Sequence of hNav1.7 (Q07699 19-218 partner): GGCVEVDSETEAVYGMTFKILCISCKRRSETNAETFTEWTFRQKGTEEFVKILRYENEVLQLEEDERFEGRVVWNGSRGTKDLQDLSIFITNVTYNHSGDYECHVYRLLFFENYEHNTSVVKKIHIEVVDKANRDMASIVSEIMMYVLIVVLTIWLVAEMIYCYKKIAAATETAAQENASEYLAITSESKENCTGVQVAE
row,Compound,IC50
1,"O=C(NS(=O)(=O)C1CC1)c1cc(C2CC2)c(CN2CCC(OCc3cc(Cl)cc(Cl)c3)CC2)cc1F [Example 512, 5-cyclopropyl-N-(cyclopropylsulfonyl)-4-((4-((3,5-dichlorobenzyl)oxy)piperidin-1-yl)methyl)-2-fluorobenzamide, trifluoroacetic acid salt]",16.7 nM
2,"CS(=O)(=O)NC(=O)c1cc(C2CC2)c(CN2CCC(CF)(c3ccc(F)cc3)CC2)cc1F [Example 513, 5-cyclopropyl-2-fluoro-4-((4-(fluoromethyl)-4-(4-fluorophenyl)piperidin-1-yl)methyl)-N-(methylsulfonyl)benzamide, trifluoroacetic acid salt]",69.8 nM
3,"O=C(NS(=O)(=O)C1CC1)c1cc(C2CC2)c(CN2CCC(CF)(c3ccc(F)cc3)CC2)cc1F [Example 514, 5-cyclopropyl-N-(cyclopropylsulfonyl)-2-fluoro-4-((4-(fluoromethyl)-4-(4-fluorophenyl)piperidin-1-yl)methyl)benzamide, trifluoroacetic acid salt]",24.4 nM
4,"CS(=O)(=O)NC(=O)c1cc(C2CC2)c(CN2CCN(Cc3cc(Cl)cc(Cl)c3)CC2)cc1F [Example 517, 5-cyclopropyl-4-((4-(3,5-dichlorobenzyl)piperazin-1-yl)methyl)-2-fluoro-N-(methylsulfonyl)benzamide, trifluoroacetic acid salt]",15 nM
5,"O=C(NS(=O)(=O)C1CC1)c1cc(C2CC2)c(CN2CCN(Cc3cc(Cl)cc(Cl)c3)CC2)cc1F [Example 518, 5-cyclopropyl-N-(cyclopropylsulfonyl)-4-((4-(3,5-dichlorobenzyl)piperazin-1-yl)methyl)-2-fluorobenzamide, trifluoroacetic acid salt]",8.2 nM
6,"CS(=O)(=O)NC(=O)c1cc(C2CC2)c(CN2CCC(Oc3ccc(Cl)c(C(F)(F)F)c3)CC2)cc1F [Example 519, 4-((4-(4-chloro-3-(trifluoromethyl)phenoxy)piperidin-1-yl)methyl)-5-cyclopropyl-2-fluoro-N-(methylsulfonyl)benzamide, trifluoroacetic acid salt]",8.1 nM
7,"O=C(NS(=O)(=O)C1CC1)c1cc(C2CC2)c(CN2CCC(Oc3ccc(Cl)c(C(F)(F)F)c3)CC2)cc1F [Example 520, 4-((4-(4-chloro-3-(trifluoromethyl)phenoxy)piperidin-1-yl)methyl)-5-cyclopropyl-N-(cyclopropylsulfonyl)-2-fluorobenzamide, trifluoroacetic acid salt]",7.3 nM
8,"CS(=O)(=O)NC(=O)c1cc(C2CC2)c(CN2CCC(Oc3cc(C(F)(F)F)c(Cl)cn3)CC2)cc1F [Example 521, 4-((4-((5-chloro-4-(trifluoromethyl)pyridin-2-yl)oxy)piperidin-1-yl)methyl)-5-cyclopropyl-2-fluoro-N-(methylsulfonyl)benzamide, trifluoroacetic acid salt]",7.9 nM
9,"O=C(NS(=O)(=O)C1CC1)c1cc(C2CC2)c(CN2CCC(Oc3cc(C(F)(F)F)c(Cl)cn3)CC2)cc1F [Example 522, 4-((4-((5-chloro-4-(trifluoromethyl)pyridin-2-yl)oxy)piperidin-1-yl)methyl)-5-cyclopropyl-N-(cyclopropylsulfonyl)-2-fluorobenzamide, trifluoroacetic acid salt]",5.2 nM
10,"CS(=O)(=O)NC(=O)c1cc(C2CC2)c(CN2CCC(Oc3ncc(C(F)(F)F)cc3Cl)CC2)cc1F [Example 523, 4-((4-((3-chloro-5-(trifluoromethyl)pyridin-2-yl)oxy)piperidin-1-yl)methyl)-5-cyclopropyl-2-fluoro-N-(methylsulfonyl)benzamide, trifluoroacetic acid salt]",5.8 nM
11,"O=C(NS(=O)(=O)C1CC1)c1cc(C2CC2)c(CN2CCC(Oc3ncc(C(F)(F)F)cc3Cl)CC2)cc1F [Example 524, 4-((4-((3-chloro-5-(trifluoromethyl)pyridin-2-yl)oxy)piperidin-1-yl)methyl)-5-cyclopropyl-N-(cyclopropylsulfonyl)-2-fluorobenzamide, trifluoroacetic acid salt]",11.4 nM
12,"O=C(NS(=O)(=O)C1CC1)c1cc(C2CC2)c(CN2CCN(S(=O)(=O)c3cc(Cl)cc(Cl)c3)CC2)cc1F [Example 527, 5-cyclopropyl-N-(cyclopropylsulfonyl)-4-((4-((3,5-dichlorophenyl)sulfonyl)piperazin-1-yl)methyl)-2-fluorobenzamide, trifluoroacetic acid salt]",9.9 nM
13,"CC(C)(c1cccc(Cl)c1)N1CCC[C@@H](Oc2cc(F)c(C(=O)NS(C)(=O)=O)cc2C2CC2)C1 [Example 529, (R)-4-((1-(2-(3-chlorophenyl)propan-2-yl)piperidin-3-yl)oxy)-5-cyclopropyl-2-fluoro-N-(methylsulfonyl)benzamide, trifluoroacetic acid salt]",2.4 nM
14,"CC(C)(c1cccc(Cl)c1)N1CCC[C@@H](Oc2cc(F)c(C(=O)NS(=O)(=O)C3CC3)cc2C2CC2)C1 [Example 530, (R)-4-((1-(2-(3-chlorophenyl)propan-2-yl)piperidin-3-yl)oxy)-5-cyclopropyl-N-(cyclopropylsulfonyl)-2-fluorobenzamide, trifluoroacetic acid salt]",2.3 nM
15,"O=C(NS(=O)(=O)C1CC1)c1cc(C2CC2)c(CN2CCC(Sc3cc(Cl)cc(Cl)c3)CC2)cc1F [Example 531, 5-cyclopropyl-N-(cyclopropylsulfonyl)-4-((4-((3,5-dichlorophenyl)thio)piperidin-1-yl)methyl)-2-fluorobenzamide, trifluoroacetic acid salt]",2.2 nM
16,"CS(=O)(=O)NC(=O)c1cc(C2CC2)c(CN2CCC(S(=O)(=O)c3cc(Cl)cc(Cl)c3)CC2)cc1F [Example 532, 5-cyclopropyl-4-((4-((3,5-dichlorophenyl)sulfonyl)piperidin-1-yl)methyl)-2-fluoro-N-(methylsulfonyl)benzamide, trifluoroacetic acid salt]",220 nM

# Next, values leading:
row,IC50,Compound
1,127 nM,"O=C(NS(=O)(=O)C1CC1)c1cc(C2CC2)c(CN2CCC(S(=O)(=O)c3cc(Cl)cc(Cl)c3)CC2)cc1F [Example 533, 5-cyclopropyl-N-(cyclopropylsulfonyl)-4-((4-((3,5-dichlorophenyl)sulfonyl)piperidin-1-yl)methyl)-2-fluorobenzamide, trifluoroacetic acid salt]"
2,879 nM,"CS(=O)(=O)NC(=O)c1cc(C2CC2)c(CN2CCC([S+]([O-])c3cc(Cl)cc(Cl)c3)CC2)cc1F (centres unmarked) [Example 534, 5-cyclopropyl-4-((4-((3,5-dichlorophenyl)sulfinyl)piperidin-1-yl)methyl)-2-fluoro-N-(methylsulfonyl)benzamide, trifluoroacetic acid salt]"
3,720 nM,"O=C(NS(=O)(=O)C1CC1)c1cc(C2CC2)c(CN2CCC([S+]([O-])c3cc(Cl)cc(Cl)c3)CC2)cc1F (centres unmarked) [Example 535, 5-cyclopropyl-N-(cyclopropylsulfonyl)-4-((4-((3,5-dichlorophenyl)sulfinyl)piperidin-1-yl)methyl)-2-fluorobenzamide, trifluoroacetic acid salt]"
4,5 nM,"CS(=O)(=O)NC(=O)c1cc(C2CC2)c(CN2CCC(Oc3cc(C(F)(F)F)cc(Cl)c3F)CC2)cc1F [Example 536, 4-((4-(3-Chloro-2-fluoro-5-(trifluoromethyl)phenoxy)piperidin-1-yl)methyl)-5-cyclopropyl-2-fluoro-N-(methylsulfonyl)benzamide, trifluoroacetic acid salt]"
5,5.7 nM,"O=C(NS(=O)(=O)C1CC1)c1cc(C2CC2)c(CN2CCC(Oc3cc(C(F)(F)F)cc(Cl)c3F)CC2)cc1F [Example 537, 4-((4-(3-chloro-2-fluoro-5-(trifluoromethyl)phenoxy)piperidin-1-yl)methyl)-5-cyclopropyl-N-(cyclopropylsulfonyl)-2-fluorobenzamide, trifluoroacetic acid salt]"
6,7120 nM,"CC(C)(C)N1CCC[C@@H](Oc2cc(F)c(C(=O)NS(C)(=O)=O)cc2C2CC2)C1 [Example 538, (R)-4-((1-(tert-butyl)piperidin-3-yl)oxy)-5-cyclopropyl-2-fluoro-N-(methylsulfonyl)benzamide]"
7,2280 nM,"CC(C)(C)N1CCC[C@@H](Oc2cc(F)c(C(=O)NS(=O)(=O)C3CC3)cc2C2CC2)C1 [Example 539, (R)-4-((1-(tert-butyl)piperidin-3-yl)oxy)-5-cyclopropyl-N-(cyclopropylsulfonyl)-2-fluorobenzamide]"
8,5.9 nM,"CC(c1cc(Cl)cc(Cl)c1)N1CCN(Cc2cc(F)c(C(=O)NS(=O)(=O)C3CC3)cc2C2CC2)CC1 (centres unmarked) [Example 541, 5-cyclopropyl-N-(cyclopropylsulfonyl)-4-((4-(1-(3,5-dichlorophenyl)ethyl)piperazin-1-yl)methyl)-2-fluorobenzamide]"
9,15.3 nM,"CS(=O)(=O)NC(=O)c1cc(C2CC2)c(CN2CC(Oc3cc(Cl)cc(Cl)c3)C2)cc1F [Example 544, 5-cyclopropyl-4-((3-(3,5-dichlorophenoxy)azetidin-1-yl)methyl)-2-fluoro-N-(methylsulfonyl)benzamide, trifluoroacetic acid salt]"
10,3.4 nM,"O=C(NS(=O)(=O)C1CC1)c1cc(C2CC2)c(CN2CC(Oc3cc(Cl)cc(Cl)c3)C2)cc1F [Example 545, 5-cyclopropyl-N-(cyclopropylsulfonyl)-4-((3-(3,5-dichlorophenoxy)azetidin-1-yl)methyl)-2-fluorobenzamide, trifluoroacetic acid salt]"

# Same assay, conditions: read-out: Ligand Binding Assay; 100 pM [3H]compound, membranes with hNav1.7 and β1 subunit, 18 h, room temperature
row,IC50,Compound
1,27 nM,"CS(=O)(=O)NC(=O)c1cc(C2CC2)c(OCC2CN(c3cc(C(F)(F)F)c(Cl)cn3)C2)cc1F [Example 542, 4-((1-(5-chloro-4-(trifluoromethyl)pyridin-2-yl)azetidin-3-yl)methoxy)-5-cyclopropyl-2-fluoro-N-(methylsulfonyl)benzamide]"
2,11.7 nM,"O=C(NS(=O)(=O)C1CC1)c1cc(C2CC2)c(OCC2CN(c3cc(C(F)(F)F)c(Cl)cn3)C2)cc1F [Example 543, 4-((1-(5-chloro-4-(trifluoromethyl)pyridin-2-yl)azetidin-3-yl)methoxy)-5-cyclopropyl-N-(cyclopropylsulfonyl)-2-fluorobenzamide]"

row,Compound,IC50
1,CC(c1cc(Cl)cc(Cl)c1)N1CCN(Cc2cc(F)c(C(=O)NS(C)(=O)=O)cc2C2CC2)CC1 (centres unmarked) [Example 540],7.8 nM
